The record followed here is patent US20100286145A1, “ISOPHTHALAMIDE DERIVATIVES INHIBITING BETA-SECRETASE ACTIVITY” (CoMentis, Inc., priority 2007, published 2010).

Read-outs that look alike come from different tables or passages of the source. Where only a bound is given, the exact number is not on record here.

The test addresses memapsin 2 (Homo sapiens, UniProt P56817). Put plainly: Inhibition of memapsin 2 beta-secretase activity (fluorogenic substrate FS-2). Type of test: biochemical. Particulars: memapsin 2, pH 4, 37° C., read-out: M2Ki. How it is done:
Potency of compounds were determined by measurement of their inhibition of memapsin 2 activity toward a fluorescent substrate. Kinetic inhibition experiments were performed using the procedure as described in Ermolieff, et al. (Biochemistry 39:12450-12456 (2000), the teachings of which are incorporated hereby in their entirety). Briefly, assays were performed at pH 4, 37° C., by pre-incubation of memapsin 2 enzyme with compound for 20 minutes. Activity measurements were initiated by addition of a fluorogenic substrate FS-2 (Bachem Americas, Torrance, Calif.) MCA-SEVNLDAEFR-DNP (SEQ ID NO.: 2). The substrate was derived from 10 amino acids of the human amyloid precursor protein (APP), with the Swedish variant amino acids at the beta-secretase cleavage site. The terminal amino acid was modified from arginine to lysine to facilitate derivatization with a functional group for detection by autofluorescence. The amino acid sequence of the “core” peptide of the substrate is SEVNLDAEFK (SEQ ID NO.: 3). The amino terminus was derivatized with (7-methoxycoumarin-4-yl)acetyl (MCA), and the epsilon amine of the lysine side chain of the terminal residue (K in sequence SEVNLDAEFK (SEQ ID NO.: 3)) was derivatized with 2,4-dinitorphenyl (DNP).
Fluorescent signal increase over time was measured as a rate of hydrolysis of the peptide substrate. Inhibition of hydrolytic rate was expressed relative to uninhibited controls and fit to a model for tight-binding inhibitors (J. Bieth, in “Proteinase Inhibitors,” Bayer Symposium V, 463-469, 1974, which is herein incorporated by reference for all purposes in its entirety).

memapsin 2, sequence (P56817 46-501): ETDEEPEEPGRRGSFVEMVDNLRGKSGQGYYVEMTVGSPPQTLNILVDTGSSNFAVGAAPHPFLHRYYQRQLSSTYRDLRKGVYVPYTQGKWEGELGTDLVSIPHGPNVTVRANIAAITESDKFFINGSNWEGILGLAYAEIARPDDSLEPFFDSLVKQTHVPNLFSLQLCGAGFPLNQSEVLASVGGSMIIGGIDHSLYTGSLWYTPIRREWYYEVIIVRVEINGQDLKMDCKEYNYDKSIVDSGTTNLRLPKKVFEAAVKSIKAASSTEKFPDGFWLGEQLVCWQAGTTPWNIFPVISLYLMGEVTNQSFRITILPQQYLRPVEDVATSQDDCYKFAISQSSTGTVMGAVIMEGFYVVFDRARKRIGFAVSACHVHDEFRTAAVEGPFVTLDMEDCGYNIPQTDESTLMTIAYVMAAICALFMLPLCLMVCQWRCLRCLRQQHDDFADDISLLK

With `CN(Cc1nc(CF)cs1)C(=O)c1cccc(C(=O)N[C@@H](Cc2ccccc2)[C@H](O)CNCc2cncc(C(C)(C)F)c2)c1` [Compound 281, N1-((4-(fluoromethyl)thiazol-2-yl)methyl)-N3-((2S,3R)-4-((5-(2-fluoropropan-2-yl)pyridin-3-yl)methylamino)-3-hydroxy-1-phenylbutan-2-yl)-N1-methylisophthalamide], the Ki (fluorogenic substrate FS-2) is below 300 nM. As for `Cc1csc(CN(C)C(=O)c2cccc(C(=O)N[C@@H](Cc3ccccc3)[C@H](O)CNCc3cccc(C(C)O)c3)c2)n1` (stereo partly drawn) [Compound 160, N1-((2S,3R)-3-hydroxy-4-(3-(1-hydroxyethyl)benzylamino)-1-phenylbutan-2-yl)-N3-methyl-N3-((4-methylthiazol-2-yl)methyl)isophthalamide], the Ki (20 minutes pre-incubation) is below 300 nM.

In the case of `Cc1csc(CN(C)C(=O)c2cccc(C(=O)N[C@@H](Cc3ccccc3)[C@H](O)CNC(C)c3cccc(C(F)F)c3)c2)n1` (stereo partly drawn) [Compound 157, N1-((2S,3R)-4-(1-(3-(difluoromethyl)phenyl)ethylamino)-3-hydroxy-1-phenylbutan-2-yl)-N3-methyl-N3-((4-methylthiazol-2-yl)methyl)isophthalamide], the Ki (20 minutes pre-incubation) is below 300 nM.

Take `CC(C)c1cncc(CNC[C@@H](O)[C@H](Cc2ccccc2)NC(=O)c2cccc(C(=O)N(C)Cc3nc(CO)cs3)c2)c1` [Compound 316, N1-((2S,3R)-3-hydroxy-4-((5-isopropylpyridin-3-yl)methylamino)-1-phenylbutan-2-yl)-N3-((4-(hydroxymethyl)thiazol-2-yl)methyl)-N3-methylisophthalamide]: the Ki (fluorogenic substrate FS-2) is below 300 nM. On the same count and under the same terms, to `Cc1csc(CN(C)C(=O)c2cccc(C(=O)N[C@@H](Cc3ccccc3)[C@H](O)CNCc3cncc(C(C)C)c3)c2O)n1` [Compound 297, 2-hydroxy-N1-((2S,3R)-3-hydroxy-4-((5-isopropylpyridin-3-yl)methylamino)-1-phenylbutan-2-yl)-N3-methyl-N3-((4-methylthiazol-2-yl)methyl)isophthalamide] belongs above 501 nM. `Cc1csc(CN(C)C(=O)c2cccc(C(=O)N[C@H](Cc3ccccc3)[C@H](O)CNCc3cncc(C(C)C)c3)c2)n1` [Compound 151, N1-((2R,3R)-3-hydroxy-4-((5-isopropylpyridin-3-yl)methylamino)-1-phenylbutan-2-yl)-N3-methyl-N3-((4-methylthiazol-2-yl)methyl)isophthalamide]: the Ki (20 minutes pre-incubation) is above 501 nM. The same measure, in the same setting: to “N3-((2S,3R)-3-hydroxy-4-(3-methoxybenzylamino)-1-phenylbutan-2-yl)-N1,4-dimethyl-N1-((4-methylthiazol-2-yl)methyl)isophthalamide and N1-((2S,3R)-3-hydroxy-4-(3-methoxybenzylamino)-1-phenylbutan-2-yl)-N3,4-dimethyl-N3-((4-methylthiazol-2-yl)methyl)isophthalamide (regioisomeric mixture) [Compound 42]” belongs above 501 nM. In the case of `Cc1csc(CN(C)C(=O)c2cccc(C(=O)N[C@@H](Cc3ccccc3)[C@H](O)CN(C)Cc3cncc(C(C)C)c3)c2)n1` [Compound 312, N1-((2S,3R)-3-hydroxy-4-(((5-isopropylpyridin-3-yl)methyl)(methyl)amino)-1-phenylbutan-2-yl)-N3-methyl-N3-((4-methylthiazol-2-yl)methyl)isophthalamide], the Ki (fluorogenic substrate FS-2) was above 501 nM. On to `COc1ccnc(CNC[C@@H](O)[C@H](Cc2ccccc2)NC(=O)c2cccc(C(=O)N(C)Cc3nc(C)cs3)c2)n1` [Compound 48, N1-((2S,3R)-3-hydroxy-4-((4-methoxypyrimidin-2-yl)methylamino)-1-phenylbutan-2-yl)-N3-methyl-N3-((4-methylthiazol-2-yl)methyl)isophthalamide], for which the Ki (20 minutes pre-incubation) is above 501 nM.

Consider `COc1cccc(CNC[C@@H](O)[C@H](Cc2ccccc2)NC(=O)c2cccc(C(=O)N(C)Cc3cccnc3)c2)c1` [Compound 55, N1-((2S,3R)-3-hydroxy-4-(3-methoxybenzylamino)-1-phenylbutan-2-yl)-N3-methyl-N3-(pyridin-3-ylmethyl)isophthalamide], for which, where the note is “20 minutes pre-incubation”, the Ki was above 501 nM. Consider `Cc1csc(CN(C)C(=O)c2cc(C(=O)N[C@@H](Cc3ccccc3)[C@H](O)CNCc3cncc(C(C)C)c3)cc(-c3ccc(N(C)C)cc3)c2)n1` [Compound 298, 4′-(dimethylamino)-N3-((2S,3R)-3-hydroxy-4-((5-isopropylpyridin-3-yl)methylamino)-1-phenylbutan-2-yl)-N5-methyl-N5-((4-methylthiazol-2-yl)methyl)biphenyl-3,5-dicarboxamide], for which, where the note is “fluorogenic substrate FS-2”, the Ki was below 300 nM. On to `CC(C)c1cncc(CNC[C@@H](O)[C@H](Cc2ccccc2)NC(=O)c2cccc(C(=O)N(C)Cc3nc(Br)cs3)c2)c1` [Compound 315, N1-((4-bromothiazol-2-yl)methyl)-N3-((2S,3R)-3-hydroxy-4-((5-isopropylpyridin-3-yl)methylamino)-1-phenylbutan-2-yl)-N1-methylisophthalamide], for which the Ki (fluorogenic substrate FS-2) was below 300 nM. Still for that read-out and setting: the result for `Cc1csc(CN(C)C(=O)c2cccc(C(=O)N[C@@H](Cc3ccccc3)[C@H](O)CNCc3cncc(C(C)CO)c3)c2)n1` (stereo partly drawn) [Compound 314, N1-((2S,3R)-3-hydroxy-4-((5-(1-hydroxypropan-2-yl)pyridin-3-yl)methylamino)-1-phenylbutan-2-yl)-N3-methyl-N3-((4-methylthiazol-2-yl)methyl)isophthalamide] reads below 300 nM. Still for that read-out and setting: the result for `Cc1csc(CNC[C@@H](O)[C@H](Cc2ccccc2)NC(=O)c2cccc(C(=O)N(C)Cc3nc(C)cs3)c2)n1` [Compound 294, N1-((2S,3R)-3-hydroxy-4-((4-methylthiazol-2-yl)methylamino)-1-phenylbutan-2-yl)-N3-methyl-N3-((4-methylthiazol-2-yl)methyl)isophthalamide] reads above 501 nM. `COc1cccc(CNC[C@@H](O)[C@H](Cc2ccccc2)NC(=O)c2cc(C(=O)NCc3nccc(C)n3)cc(N(C)S(C)(=O)=O)c2)c1` [Compound 105, N1-((2S,3R)-3-hydroxy-4-(3-methoxybenzylamino)-1-phenylbutan-2-yl)-5-(N-methylmethylsulfonamido)-N3-((4-methylpyrimidin-2-yl)methyl)isophthalamide]: the Ki (20 minutes pre-incubation) is above 501 nM. `CC(=O)c1cc(C(=O)N[C@@H](Cc2ccccc2)[C@H](O)CNCc2cncc(C(C)C)c2)cc(C(=O)N[C@H](C)c2ccccc2)c1` [Compound 308, 5-acetyl-N1-((2S,3R)-3-hydroxy-4-((5-isopropylpyridin-3-yl)methylamino)-1-phenylbutan-2-yl)-N3-((R)-1-phenylethyl)isophthalamide]: the Ki (fluorogenic substrate FS-2) was below 300 nM. Regarding `Cc1csc(CN(C)C(=O)c2cccc(C(=O)N[C@@H](Cc3ccccc3)[C@H](O)CNCc3ccc(CO)c(C)n3)c2)n1` [Compound 37, N1-((2S,3R)-3-hydroxy-4-((5-(hydroxymethyl)-6-methylpyridin-2-yl)methylamino)-1-phenylbutan-2-yl)-N3-methyl-N3-((4-methylthiazol-2-yl)methyl)isophthalamide], where the note is “20 minutes pre-incubation”, the Ki is above 501 nM.

On to `COc1cccc(CNC[C@@H](O)[C@H](Cc2ccccc2)NC(=O)c2cc(NO)cc(C(=O)N[C@H](C)c3ccccc3)c2)c1` [Compound 123, N1-((2S,3R)-3-hydroxy-4-(3-methoxybenzylamino)-1-phenylbutan-2-yl)-5-(hydroxyamino)-N3-((R)-1-phenylethyl)isophthalamide], for which the Ki (20 minutes pre-incubation) is above 501 nM.
